{"source": "paper PMC6877959", "about": "“β-Lactoglobulin Heptapeptide Reduces Oxidative Stress in Intestinal Epithelial Cells and Angiotensin II-Induced Vasoconstriction on Mouse Mesenteric Arteries by Induction of Nuclear Factor Erythroid 2-Related Factor 2 (Nrf2) Translocation” (Oxidative Medicine and Cellular Longevity, 2019)", "key": {"Caco-2 cell monolayer [1]": {"system": "Caco-2 cell monolayer", "experiment": "Caco-2 cell monolayer permeation (transepithelial transport)", "type": "in vitro ADME", "conditions": "UHPLC-MS/MS", "procedure": "(§1) The colorectal adenocarcinoma (Caco-2) cell line was purchased from ATCC (Rockville, MD, USA). Cells were maintained in high-glucose DMEM (4.5 g/L) supplemented with 2 mM L-glutamine and 10% (v/v) heat-inactivated foetal bovine serum. Cells were cultured at 37°C in a humidified 5% CO2 atmosphere. To induce enterocytic Caco-2 differentiation, cells were seeded in a 12-well multiwell in transwell inserts (PET membrane, 0.4 μm pore size, 1.12 cm^2 surface area) at 2.6 × 10^5 cells/cm^2 and maintained for 21 days in complete medium. The medium was changed every second day. By 21 days, the monolayers become completely differentiated.\n(§2) The integrity of the monolayers was evaluated by measurement of the transepithelial electrical resistance (TEER) using an EVOM2 epithelial voltohmmeter (World Precision Instruments, Sarasota, FL, USA). Only monolayers showing TEER higher than 300 Ω × cm^2 were then used for transport experiments. The integrity of the monolayers was checked before, during, and after the experiment. The filters were washed for 15-20 min at 37°C adding prewarmed Hank's balanced salt solution buffered with 25 mM HEPES and NaHCO3 (0.35 g/L) at pH 7.4 to the apical (0.4 mL) and to the basolateral (1.2 mL) transwell compartments, as previously described. For transport experiments, donor solution containing BRP2 peptide at the desired concentration (100-1 μM) was added to the apical compartment for the apical to basolateral (absorptive) direction. Samples from the receiving compartment were collected at different time points up to 120 min (15, 30, 60, 90, and 120 min). Samples from the donor compartment were collected at time 0 and at the end of the experiment (120 min) for the calculation of the mass balance.\n(§3) Samples were stored at −20°C until UHPLC-MS/MS analyses to measure the concentration of BRP2 in both compartments (for detailed conditions, see Supporting Information ).\n(§4) The apparent permeability coefficient (Papp) was calculated as described according to (1) Papp=dMR^t/dt×1/A×CD0, where MR is the amount of substance in the receiver chamber, A (cm^2) is the surface area of the barrier, and CD0 (μM) is the initial donor concentration. The reduction in donor concentration was also taken after every sampling (see Supporting Information ).\n(§5) Instead, for the quantification of BRP2 in donor and receiver chamber, the stock solution was diluted with fresh HBSS to a series of concentrations ranged of 125-0.5 nM to establish the calibration curve (y = 0.000001x – 0,000363; R^2 ≥ 0.9997).\n(§6) The apparent permeability values of BRP2 were calculated according to the Eq. 1. This calculation requires that the sink conditions are fulfilled, that is, the ratio CR/CD is less than 0.1 at each sampling point used in the analysis. […] The donor concentration was recalculated by subtracting the cumulative amount transported to the receiver chamber for each time interval:\n(§7) CD (ti) and CR (ti) (μM): donor and receiver chamber concentrations calculated at each sample occasion (i) from the donor and receiver concentrations at the previous occasion CD (ti–1) and CR (ti–1), respectively; f=1–VS/VR: sample replacement diluition factor; VS (cm^3): sample volume; VR (cm^3): receiver chamber volume; VD (cm^3): donor chamber volume. ^[28]\n(§8) recovery (%) = (CD(fin) × VD +∑ (CS(t) × VS(t)) + CR(fin) × VR(fin)) × 100 / (CD(0) × VD(0)) […]"}, "[2]": {"experiment": "Caco-2 cell monolayer permeation (transepithelial transport)", "type": "in vitro ADME", "conditions": "human, Caco-2, 21-day, transwell, apical to basolateral, HBSS 25 mM HEPES pH 7.4, 37°C, time point 120 min, UHPLC-MS/MS, means ± S.D.", "procedure": "as §1, §2, §3, §4, §5, §6, §7, §8"}, "Caco-2 cell monolayer [3]": {"system": "Caco-2 cell monolayer", "experiment": "Immunofluorescence of Caco-2 monolayers after transport (zonulin-1, integrity)", "type": "cell-based", "conditions": "after transport studies, all the concentrations tested", "procedure": "The transwell membranes from TEER experiments were washed with PBS and fixed with 4% paraformaldehyde (PFA) for 15 min. Membranes were then washed in PBS and blocked with blocking solution (0.1% Triton, 1% BSA, 0.02% sodium azide, and 50 mM ammonium chloride) for 20 min at room temperature in the dark. Afterwards, they were incubated with an anti-zonulin 1 antibody (#402200, Invitrogen, Thermo Fisher Scientific, Waltham, MA, USA) at the final concentration of 2 μg mL^−1 at room temperature for 2 hours. Immunofluorescence staining was obtained by incubating the membranes for 90 min with Alexa Fluor 488 donkey anti-rabbit IgG (#A31573) at the final concentration of 4 μg mL^−1 (Invitrogen). The nuclei were counterstained with DAPI (1 : 2000). Membranes were cut down with an operating knife blade along the margin of the chamber and were mounted on slides using VectaMount solution (AQ Vector Laboratories, Burlingame, CA, USA). Slides were examined under a Nikon fluorescence inverted microscope (Nikon Instruments Europe, Firenze, Italy) and then analyzed through ImageJ software as previously described.\nFigure S3: Fluorescence micrograph of the Caco-2 cell monolayers. Caco-2 cell monolayers treated with BRP2 (50 µM, 2 h) from TEER experiments were stained for tight junction protein expression of zonulin-1 (FITC, green). Nuclei were counterstained with DAPI (blue). […]"}}, "note": "Ends that are not written are not given here.", "data": [{"substance": "SFNPTQL [BRP2, Ser-Phe-Asn-Pro-Thr-Gln-Leu]", "values": [{"measurement": "Papp", "setting": "Caco-2 cell monolayer [1]; BRP2 10 μM, Caco-2, 21-day, transwell, apical to basolateral, HBSS 25 mM HEPES pH 7.4, 37°C, time point 120 min, means ± S.D.", "value": "0.53 ± 0.01 10^-6 cm/s"}, {"measurement": "mass balance (recovery)", "setting": "Caco-2 cell monolayer [1]; Caco-2 transport, donor sampled at 0 and 120 min", "value": "more than 80%"}, {"measurement": "Papp A→B at 120 min, 1 μM", "setting": "[2]; BRP2 1 μM", "value": "0.53 ± 0.15", "unit": "×10⁻⁶ cm/s"}, {"measurement": "Papp A→B at 120 min, 50 μM", "setting": "[2]; BRP2 50 μM", "value": "0.2 ± 0.05", "unit": "×10⁻⁶ cm/s"}, {"measurement": "Papp A→B at 120 min, 100 μM", "setting": "[2]; BRP2 100 μM", "value": "0.27 ± 0.07", "unit": "×10⁻⁶ cm/s"}, {"measurement": "Caco-2 cell monolayer integrity (zonulin-1 expression)", "setting": "Caco-2 cell monolayer [3]", "value": "preserved"}]}]}
